Target: T1, lymphostatin (LifA; rLifA) (Escherichia coli, UniProt B7UI23)
T1 construct: gene E2348C_3234; full-length, C-terminal His6 tag kept, expressed in E. cloni (E. coli K-12) from pRham; 3229 residues as printed, 365 kDa, monomer
Assay: intrinsic tryptophan fluorescence titration (ex […] nm, em […] nm)
Format: binding

Which Kd does the source give for `CC(=O)N[C@H]1[C@@H](OP(=O)(O)OP(=O)(O)OC[C@H]2O[C@@H](n3ccc(=O)[nH]c3=O)[C@H](O)[C@@H]2O)O[C@H](CO)[C@@H](O)[C@@H]1O` [UDP-GlcNAc] here?
The Kd was 120 ± 30 µM.

From publication PMC4786716, “Biophysical Characterization and Activity of Lymphostatin, a Multifunctional Virulence Factor of Attaching and Effacing Escherichia coli” (The Journal of Biological Chemistry, 2016)
